# Results: PubChem BioAssay (NCI)
#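 All cell lines were grown in 96-well plates and treated with compound for 48 hours. At the TGI there is no net growth.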
# Experiments:
# Assay in all cases: NCI-60 cell line screen, 48 h
# SNB-75 CNS = system: SNB-75 CNS
# ACHN renal = system: ACHN renal
# TK-10 renal = system: TK-10 renal
# SNB-19 CNS = system: SNB-19 CNS
# UACC-62 melanoma = system: UACC-62 melanoma
# SK-MEL-5 melanoma = system: SK-MEL-5 melanoma
# HCT-15 colon = system: HCT-15 colon
# PC-3 prostate = system: PC-3 prostate
# HCT-116 colon = system: HCT-116 colon
# RXF 393 renal = system: RXF 393 renal
# 786-0 renal = system: 786-0 renal
# U251 CNS = system: U251 CNS
# SF-539 CNS = system: SF-539 CNS
# MALME-3M melanoma = system: MALME-3M melanoma
# DU-145 prostate = system: DU-145 prostate
# LOX IMVI melanoma = system: LOX IMVI melanoma
# T-47D breast = system: T-47D breast
# MDA-MB-435 = system: MDA-MB-435
# MDA-MB-231 breast = system: MDA-MB-231 breast
# NCI-H522 lung = system: NCI-H522 lung
# SK-MEL-2 melanoma = system: SK-MEL-2 melanoma
# HOP-92 NSCLC = system: HOP-92 NSCLC
# UO-31 renal = system: UO-31 renal
# CCRF-CEM leukemia = system: CCRF-CEM leukemia
# HOP-62 NSCLC = system: HOP-62 NSCLC
# SK-OV-3 ovarian = system: SK-OV-3 ovarian
# HT29 colon = system: HT29 colon
# CAKI-1 renal = system: CAKI-1 renal
# MOLT-4 leukemia = system: MOLT-4 leukemia
# OVCAR-4 ovarian = system: OVCAR-4 ovarian
# OVCAR-3 ovarian = system: OVCAR-3 ovarian
# M14 melanoma = system: M14 melanoma
# SW-620 colon = system: SW-620 colon
# NCI-H226 lung = system: NCI-H226 lung
# EKVX NSCLC = system: EKVX NSCLC
# A498 renal = system: A498 renal
# IGROV1 ovarian = system: IGROV1 ovarian
# SR leukemia = system: SR leukemia
# OVCAR-8 ovarian = system: OVCAR-8 ovarian
# MCF7 breast = system: MCF7 breast
# MDA-N = system: MDA-N
# KM12 colon = system: KM12 colon
# NCI/ADR-RES ovarian = system: NCI/ADR-RES ovarian
# A549 NSCLC = system: A549 NSCLC
# OVCAR-5 ovarian = system: OVCAR-5 ovarian
# SF-295 CNS = system: SF-295 CNS
# RPMI-8226 leukemia = system: RPMI-8226 leukemia
# SN12C renal = system: SN12C renal
# K-562 leukemia = system: K-562 leukemia
# COLO 205 colon = system: COLO 205 colon
# UACC-257 melanoma = system: UACC-257 melanoma
# NCI-H23 lung = system: NCI-H23 lung
# HCC-2998 colon = system: HCC-2998 colon
# SK-MEL-28 melanoma = system: SK-MEL-28 melanoma
# NCI-H460 lung = system: NCI-H460 lung
# SF-268 CNS = system: SF-268 CNS
# HS 578T breast = system: HS 578T breast
structure (smiles),measurement,setting,value
O=c1c(Cl)nsnc1Cl,TGI,SNB-75 CNS,> 53.1 µM
same,TGI,ACHN renal,14.7 µM
same,TGI,TK-10 renal,7.93 µM
same,TGI,SNB-19 CNS,49.1 µM
same,TGI,UACC-62 melanoma,33.4 µM
same,TGI,SK-MEL-5 melanoma,32.8 µM
same,TGI,HCT-15 colon,51.1 µM
same,TGI,PC-3 prostate,39.1 µM
same,TGI,HCT-116 colon,20.5 µM
same,TGI,RXF 393 renal,24.8 µM
same,TGI,786-0 renal,3.32 µM
same,TGI,U251 CNS,35.9 µM
same,TGI,SF-539 CNS,28.1 µM
same,TGI,MALME-3M melanoma,84.5 µM
same,TGI,DU-145 prostate,31.5 µM
same,TGI,LOX IMVI melanoma,27.2 µM
same,TGI,T-47D breast,> 31.6 µM
same,TGI,MDA-MB-435,28.1 µM
same,TGI,MDA-MB-231 breast,41.8 µM
same,TGI,NCI-H522 lung,3.81 µM
same,TGI,SK-MEL-2 melanoma,> 100 µM
same,TGI,HOP-92 NSCLC,13 µM
same,TGI,UO-31 renal,74.5 µM
same,TGI,CCRF-CEM leukemia,3.27 µM
same,TGI,HOP-62 NSCLC,34.5 µM
same,TGI,SK-OV-3 ovarian,35 µM
same,TGI,HT29 colon,60.2 µM
same,TGI,CAKI-1 renal,37.3 µM
same,TGI,MOLT-4 leukemia,4.09 µM
same,TGI,OVCAR-4 ovarian,49.4 µM
same,TGI,OVCAR-3 ovarian,17.1 µM
same,TGI,M14 melanoma,12.8 µM
same,TGI,SW-620 colon,31.5 µM
same,TGI,NCI-H226 lung,53.2 µM
same,TGI,EKVX NSCLC,58.2 µM
same,TGI,A498 renal,28.8 µM
same,TGI,IGROV1 ovarian,32.4 µM
same,TGI,SR leukemia,4.43 µM
same,TGI,OVCAR-8 ovarian,> 91.6 µM
same,TGI,MCF7 breast,31.5 µM
same,TGI,MDA-N,36.9 µM
same,TGI,KM12 colon,> 57.8 µM
same,TGI,NCI/ADR-RES ovarian,> 100 µM
same,TGI,A549 NSCLC,65.4 µM
same,TGI,OVCAR-5 ovarian,38.6 µM
same,TGI,SF-295 CNS,40.8 µM
same,TGI,RPMI-8226 leukemia,5.22 µM
same,TGI,SN12C renal,48.4 µM
same,TGI,K-562 leukemia,3.58 µM
same,TGI,COLO 205 colon,3.87 µM
same,TGI,UACC-257 melanoma,26.8 µM
same,TGI,NCI-H23 lung,50.5 µM
same,TGI,HCC-2998 colon,35.2 µM
same,TGI,SK-MEL-28 melanoma,35.1 µM
same,TGI,NCI-H460 lung,> 73.1 µM
same,TGI,SF-268 CNS,71.3 µM
same,TGI,HS 578T breast,78.9 µM
